Values after ≈ are worked out from the molar mass of the structure shown. Read-outs that look alike come from different tables or passages of the source.
Key:
A. flavus ATCC 204304 = assay: Checkerboard broth microdilution (CLSI); assay type: cell-based; conditions: isolate ATCC 204304
Experimental: (§1) Isolates were tested against varying concentrations of amphotericin B and C2′epiAmB (range, 0.06 to 4 mg/L) and combined with fluconazole (range, 0.12 to 128 mg/L) or ketoconazole (range 0.008 to 8 mg/L) or voriconazole (range, 0.004 to 4 mg/L) using a checkerboard grid design following the Clinical and Laboratory Standards Institute (CLSI) broth microdilution method (M23Ed5).

A. fumigatus 1077391 = assay: Checkerboard broth microdilution (CLSI); assay type: cell-based; conditions: isolate 1077391
Experimental: as §1

[1] = test system: A. fumigatus ATCC MYA-3626; assay: Checkerboard broth microdilution (CLSI); assay type: cell-based; conditions: isolate ATCC MYA-3626; for MIC: single agent
Experimental: as §1

C. albicans 967374 = assay: Checkerboard broth microdilution (CLSI); assay type: cell-based; conditions: isolate 967374
Experimental: as §1

C. glabrata 1046695 = assay: Checkerboard broth microdilution (CLSI); assay type: cell-based; conditions: isolate 1046695; for MIC: single agent
Experimental: as §1

C. krusei 975691 = assay: Checkerboard broth microdilution (CLSI); assay type: cell-based; conditions: isolate 975691
Experimental: as §1

primary hREC = assay: Toxicity to primary hREC; assay type: cell-based, human
Description: This key discovery opened a path to the rational development of a non-toxic AmB variant. To probe its predicted role in sterol binding, the hydroxyl group was synthetically deleted at the C2′ position on the mycosamine appendage.
In each case, C2′epiAmB is non-toxic to human red blood cells, primary hREC, mice, and rats up to the highest dose tested.

[2] = test system: Candida and Aspergillus clinical isolates; assay: In vitro antifungal activity against clinical isolates (Evotec); assay type: cell-based; conditions: many Candida and several Aspergillus strains
Description: In vitro antifungal activity of C2′ epiAmB was compared with that of AmB against an extensive series of Candida and Aspergillus clinical isolates (FIG. 6A) at Evotec (Oxfordshire, UK). […] C2′epiAmB was also sent to the US national Fungus Testing Laboratory at UT-San Antonio for antifungal testing against an extended panel of especially challenging 40 Aspergillus clinical isolates, including azole-resistant A. fumigatus, A. flavus, and A. terreus (FIG. 6B).

Candida albicans SN250 = assay: MIC against Candida albicans SN250; assay type: cell-based
C. albicans = assay: Murine model of invasive candidiasis; assay type: in vivo, mice
Experimental: Andes, D. et al., Antimicrobial agents and chemotherapy 2001, 45 (3), 922-6. In fact, the PD parameter that best correlates with outcome is Cmax-/MIC. The same was subsequently observed in a pulmonary model of invasive aspergillosis. Wiederhold, N. P. et al., Antimicrobial agents and chemotherapy 2006, 50 (2), 469-73.
A clinical isolate of C. albicans (SN250) was grown and quantified on SDA. For 24 h before infection, the organism was subcultured at 35° C. on SDA slants. A 106CFU/ml inoculum was prepared by placing six fungal colonies into 5 ml of sterile, depyrogenated normal (0.9%) saline warmed to 35° C. Six week-old ICR/Swiss specific-pathogen-free female mice were obtained from Harlan Sprague Dawley (Madison, Wis.). The mice were weighed (23-27 g) and disseminated candidiasis was induced via tail vein injection of 100 μl of inoculum. AmB and C2′ epiAmB were reconstituted in their deoxycholate form with 1.0 ml of saline5% dextrose. Each animal in the treatment group was given a single 200-μl intravenous (IV) injection of reconstituted AmB and C2′epiAmB 2 h after infection. Doses were calculated in terms of mg of compound per kg of body weight. At 24 h after infection, three animals per experimental condition were killed by CO2 asphyxiation. The kidneys from each animal were removed and homogenized. The homogenate was diluted serially tenfold with […] and plated on SDA. […]

[3] = Intravenous toxicity in rats; conditions: IV, 2, 10, and 17.5 mg/kg

C[C@@H]1[C@H](O)[C@@H](C)/C=C/C=C/C=C/C=C/C=C/C=C/C=C/[C@H](OC2O[C@H](C)[C@@H](O)[C@H](N)[C@H]2O)CC2O[C@](O)(C[C@@H](O)C[C@@H](O)[C@H](O)CC[C@@H](O)C[C@@H](O)CC(=O)O[C@H]1C)C[C@H](O)[C@H]2C(=O)O (stereo partly drawn) [C2′epiAmB, C2′epi amphotericin B]
MIC (A. flavus ATCC 204304; Aspergillus flavus, ATCC204304, single agent): 2 µg/mL | MIC when added 1 log2 unit lower of azoles' MIC (A. flavus ATCC 204304; with ketoconazole): 2 mg/L | MIC when added 1 log2 unit lower of azoles' MIC (A. flavus ATCC 204304; with voriconazole): 1 mg/L | MIC (A. fumigatus 1077391; Aspergillus fumigatus, single agent): 4 µg/mL | MIC when added 1 log2 unit lower of azoles' MIC (A. fumigatus 1077391; with ketoconazole): 0.06 mg/L | MIC when added 1 log2 unit lower of azoles' MIC (A. fumigatus 1077391; with voriconazole): >4 mg/L | MIC ([1]; Aspergillus fumigatus, read-out: MIC): > 4 µg/mL | MIC [1]: 4 µg/mL | MIC when added 1 log2 unit lower of azoles' MIC ([1]; with ketoconazole): 0.06 mg/L | MIC when added 1 log2 unit lower of azoles' MIC ([1]; with voriconazole): >4 mg/L | MIC (C. albicans 967374; Candida albicans, single agent, read-out: MIC): 2 µg/mL | MIC when added 1 log2 unit lower of azoles' MIC (C. albicans 967374; with fluconazole): 2 mg/L | MIC when added 1 log2 unit lower of azoles' MIC (C. albicans 967374; with ketoconazole): 1 mg/L | MIC when added 1 log2 unit lower of azoles' MIC (C. albicans 967374; with voriconazole): 1 mg/L | MIC (C. glabrata 1046695; Nakaseomyces glabratus, read-out: MIC): 1 µg/mL | MIC (C. glabrata 1046695): 2 µg/mL | MIC when added 1 log2 unit lower of azoles' MIC (C. glabrata 1046695; with fluconazole): 2 mg/L | MIC when added 1 log2 unit lower of azoles' MIC (C. glabrata 1046695; with ketoconazole): 1 mg/L | MIC when added 1 log2 unit lower of azoles' MIC (C. glabrata 1046695; with voriconazole): 1 mg/L | MIC (C. krusei 975691; Pichia kudriavzevii, single agent, read-out: MIC): 2 µg/mL | MIC when added 1 log2 unit lower of azoles' MIC (C. krusei 975691; with fluconazole): 2 mg/L | MIC when added 1 log2 unit lower of azoles' MIC (C. krusei 975691; with ketoconazole): 2 mg/L | MIC when added 1 log2 unit lower of azoles' MIC (C. krusei 975691; with voriconazole): 2 mg/L | toxicity to primary hREC (primary hREC): non-toxic | in vitro antifungal activity [2]: good activity | MIC (Candida albicans SN250): 0.5 µM (≈ 0.462 µg/mL) | fungal burden (C. albicans; 16 mg/kg dose): outstanding reductions in fungal burden | efficacy (C. albicans; neutropenic ICR/Swiss mice, deoxycholate complex, single injection 1, 4, 8, or 16 mg/kg): dose-dependent efficacy | mortality [3]: no mortality

Source: US20220370486A1, “COMBINATION TREATMENT OF SYSTEMIC FUNGAL INFECTIONS” (The Board of Trustees of the University of Illinois, priority 2019, published 2022)
